# Assay results from publication PMC8305873, “Design and heterologous expression of a novel dimeric LL37 variant in Pichia pastoris” (Microbial Cell Factories, 2021).
# Where two headings read alike, the source gives them in different places. Where a SMILES comes first, the peptide text is derived from it.
# Assays:
# [1] = tested on: human red blood cells; assay: Hemolytic activity assay; format: cell-based; settings: for MHC (minimum hemolysis concentration): concentration of peptide that causes 20% hemolysis, human red blood cells in 10 mM PBS pH 7.4, 37 °C 1 h, OD570
# [2] = tested on: E. coli UB 1005; format: cell-based, Escherichia coli
# Procedure: (§1) All experiments were conducted at least three different times.
# [3] = tested on: bacteria; settings: when no antimicrobial activity is detected at 32 µM, 64 µM is used
# Procedure: The minimum inhibitory concentration (MIC) is a vital indicator for evaluating the antimicrobial activity of AMPs. The determination method refers to the improved method of Dong et al.. The strains to be tested were inoculated in Mueller Hinton broth (MHB) medium and cultured at 200 rpm and 37 °C until the logarithmic growth phase, and then the number of colonies was adjusted to approximately 10^5 CFU/mL. The 95 µL of bovine serum albumin (BSA) diluent (0.01% acetic acid and 0.2% BSA) and 5 µL of peptide (1.28 mM) were added to the first row of the 96-well plate, and 50 µL of BSA diluent was added to the other columns. After mixing in the first row, 50 µL of the mixture was aspirated and added to the second column and so on to the 11th row. After being cultured at 37 °C for 18–24 h, the minimum peptide concentration required to inhibit bacterial growth was the MIC value. All experiments were conducted at least three different times.
# The safety of peptides is usually assessed by hemolytic activity. The collected blood of type B from healthy donor was centrifuged at 1000×g for 5 min to collect red blood cells. The red blood cells were then washed and resuspended in 10 mM PBS (pH 7.4). Fifty microliters of diluted red blood cells and an equal volume of peptide solution (2–128 µM) were incubated in a 96-well plate at 37 °C for 1 h. The red blood cell suspension treated with 0.1% Triton X-100 was used as a positive control (100% hemolysis), and untreated blood cell suspension was used as a negative control. The 96-well plate was centrifuged at 1000×g for 5 min at 4 °C, and then the supernatant was transferred to a new 96-well plate. The absorbance at OD570 was measured with a microplate reader.
# [4] = tested on: S. aureus ATCC 29213; format: cell-based, Staphylococcus aureus; settings: ATCC 29213
# Procedure: as §1
# [5] = tested on: S. aureus ATCC 25923; format: cell-based, Staphylococcus aureus; settings: ATCC 25923
# Procedure: as §1
# [6] = tested on: S. epidermidis ATCC 12228; format: cell-based, Staphylococcus epidermidis; settings: ATCC 12228
# Procedure: as §1
# [7] = tested on: E. coli ATCC 078; format: cell-based, Escherichia coli; settings: ATCC 078
# Procedure: as §1
# [8] = tested on: E. coli ATCC 25922; format: cell-based, Escherichia coli; settings: ATCC 25922
# Procedure: as §1
# [9] = tested on: S. faecalis ATCC 29212; format: cell-based, Streptococcus faecalis; settings: ATCC 29212
# Procedure: as §1
# [10] = tested on: P. aeruginosa ATCC 27853; format: cell-based, Pseudomonas aeruginosa; settings: ATCC 27853
# Procedure: as §1
# [11] = tested on: S. Typhimurium C 7731; format: cell-based, Salmonella Typhimurium; settings: C 7731
# Procedure: as §1
# [12] = tested on: S. Typhimurium ATCC 14028; format: cell-based, Salmonella Typhimurium; settings: ATCC 14028
# Procedure: as §1
# [13] = tested on: E. coli ATCC 25922; format: cell-based, Escherichia coli; settings: ATCC 25922; remark: listed apart in the source
# [14] = tested on: E. coli ATCC 25922; format: cell-based, Escherichia coli; settings: ATCC 25922; remark: listed apart in the source
# Procedure: as §1
# The salt ions were added to the BSA solution and configured into different final concentrations of salt ions (150 mM NaCl, 4.5 mM KCl, 6 µM NH4Cl, 8 µM ZnCl2, 1 mM MgCl2, 2 mM CaCl2, and 4 µM FeCl3) solutions. The method discribed as above was referred to determine the MIC value of rLG against E. coli ATCC 25922 in the presence of different concentrations of salt ions.
Structure (SMILES),MHC (minimum hemolysis concentration) [1],MIC ([2]; UB 1005),GM (geometric mean of the MIC value of the peptide against bacteria) [3],MIC [4],MIC [5],MIC [6],MIC [7],MIC [8],MIC [9],MIC [10],MIC [11],MIC [12],also measured
CC[C@H](C)[C@H](NC(=O)[C@H](CCCNC(=N)N)NC(=O)[C@H](CCC(N)=O)NC(=O)[C@@H](NC(=O)[C@@H](NC(=O)[C@H](CCCNC(=N)N)NC(=O)[C@H](CCCCN)NC(=O)[C@H](Cc1ccccc1)NC(=O)[C@H](CO)NC(=O)CNC(=O)CNC(=O)CNC(=O)CNC(=O)[C@H](CCCNC(=N)N)NC(=O)[C@H](CC(C)C)NC(=O)[C@H](Cc1ccccc1)NC(=O)[C@H](CCCNC(=N)N)NC(=O)[C@H](CCCCN)NC(=O)[C@@H](NC(=O)[C@H](CCCNC(=N)N)NC(=O)[C@H](CCC(N)=O)NC(=O)[C@@H](NC(=O)[C@@H](NC(=O)[C@H](CCCNC(=N)N)NC(=O)[C@H](CCCCN)NC(=O)[C@@H](N)Cc1ccccc1)[C@@H](C)CC)C(C)C)[C@@H](C)CC)[C@@H](C)CC)C(C)C)C(=O)N[C@@H](CCCCN)C(=O)N[C@@H](CCCNC(=N)N)C(=O)N[C@@H](Cc1ccccc1)C(=O)N[C@@H](CC(C)C)C(=O)N[C@@H](CCCNC(=N)N)C(=O)O [LG] (H-FKRIVQRIKRFLRGGGGSFKRIVQRIKRFLR-OH),64 µM,1.22 ± 0.41 µM,2.00 µM,,,,,,,,,,"MIC ([2]; Table 3, recombinant vs synthetic LG, mean ± SD of three independent experiments): 1.33 ± 0.25 µM"
CC[C@H](C)[C@H](NC(=O)[C@H](CCCNC(=N)N)NC(=O)[C@H](CCC(N)=O)NC(=O)[C@@H](NC(=O)[C@@H](NC(=O)[C@H](CCCNC(=N)N)NC(=O)[C@H](CCCCN)NC(=O)[C@@H](N)Cc1ccccc1)[C@@H](C)CC)C(C)C)C(=O)N[C@@H](CCCCN)C(=O)N[C@@H](CC(=O)O)C(=O)N[C@@H](Cc1ccccc1)C(=O)N[C@@H](CC(C)C)C(=O)N[C@@H](CCCNC(=N)N)C(=O)O [FD] (H-FKRIVQRIKDFLR-OH),,16.00 ± 0.00 µM,,> 32 µM,> 32 µM,> 32 µM,16.00 ± 0.00 µM,32.00 ± 0.00 µM,> 32 µM,> 32 µM,32.00 ± 0.00 µM,32.00 ± 0.00 µM,
CC[C@H](C)[C@H](NC(=O)[C@H](CCCNC(=N)N)NC(=O)[C@H](CCC(N)=O)NC(=O)[C@@H](NC(=O)[C@@H](NC(=O)[C@H](CCCNC(=N)N)NC(=O)[C@H](CCCCN)NC(=O)[C@H](Cc1ccccc1)NC(=O)[C@H](C)NC(=O)[C@H](CCCCN)NC(=O)[C@H](C)NC(=O)[C@H](C)NC(=O)[C@H](C)NC(=O)[C@H](CCC(=O)O)NC(=O)[C@H](C)NC(=O)[C@H](CCCNC(=N)N)NC(=O)[C@H](CC(C)C)NC(=O)[C@H](Cc1ccccc1)NC(=O)[C@H](CCCNC(=N)N)NC(=O)[C@H](CCCCN)NC(=O)[C@@H](NC(=O)[C@H](CCCNC(=N)N)NC(=O)[C@H](CCC(N)=O)NC(=O)[C@@H](NC(=O)[C@@H](NC(=O)[C@H](CCCNC(=N)N)NC(=O)[C@H](CCCCN)NC(=O)[C@@H](N)Cc1ccccc1)[C@@H](C)CC)C(C)C)[C@@H](C)CC)[C@@H](C)CC)C(C)C)C(=O)N[C@@H](CCCCN)C(=O)N[C@@H](CCCNC(=N)N)C(=O)N[C@@H](Cc1ccccc1)C(=O)N[C@@H](CC(C)C)C(=O)N[C@@H](CCCNC(=N)N)C(=O)O [LA] (H-FKRIVQRIKRFLRAEAAAKAFKRIVQRIKRFLR-OH),32 µM,1.11 ± 0.31 µM,8.00 µM,> 32 µM,> 32 µM,> 32 µM,2.44 ± 0.83 µM,2.22 ± 0.63 µM,> 32 µM,4.44 ± 1.25 µM,1.11 ± 0.31 µM,4.44 ± 1.25 µM,
CC[C@H](C)[C@H](NC(=O)[C@H](CCCNC(=N)N)NC(=O)[C@H](CCC(N)=O)NC(=O)[C@@H](NC(=O)[C@@H](NC(=O)[C@H](CCCNC(=N)N)NC(=O)[C@H](CCCCN)NC(=O)[C@H](Cc1ccccc1)NC(=O)[C@H](CCCNC(=N)N)NC(=O)[C@H](CC(C)C)NC(=O)[C@H](Cc1ccccc1)NC(=O)[C@H](CCCNC(=N)N)NC(=O)[C@H](CCCCN)NC(=O)[C@@H](NC(=O)[C@H](CCCNC(=N)N)NC(=O)[C@H](CCC(N)=O)NC(=O)[C@@H](NC(=O)[C@@H](NC(=O)[C@H](CCCNC(=N)N)NC(=O)[C@H](CCCCN)NC(=O)[C@@H](N)Cc1ccccc1)[C@@H](C)CC)C(C)C)[C@@H](C)CC)[C@@H](C)CC)C(C)C)C(=O)N[C@@H](CCCCN)C(=O)N[C@@H](CCCNC(=N)N)C(=O)N[C@@H](Cc1ccccc1)C(=O)N[C@@H](CC(C)C)C(=O)N[C@@H](CCCNC(=N)N)C(=O)O [(FR)2] (H-FKRIVQRIKRFLRFKRIVQRIKRFLR-OH),16 µM,1.00 ± 0.00 µM,1.62 µM,2.00 ± 0.00 µM,3.78 ± 0.63 µM,2.00 ± 0.00 µM,1.11 ± 0.31 µM,1.22 ± 0.41 µM,2.00 ± 0.00 µM,2.22 ± 0.63 µM,1.11 ± 0.31 µM,2.22 ± 0.63 µM,"hemolysis (blood cells destroyed) ([1]; at the highest peptide concentration (128 μM), human red blood cells, 37 °C 1 h, 0.1% Triton X-100 = 100%): approximately 43%"
CC[C@H](C)[C@H](NC(=O)[C@H](CCCNC(=N)N)NC(=O)[C@H](CCC(N)=O)NC(=O)[C@@H](NC(=O)[C@@H](NC(=O)[C@H](CCCNC(=N)N)NC(=O)[C@H](CCCCN)NC(=O)[C@@H](N)Cc1ccccc1)[C@@H](C)CC)C(C)C)C(=O)N[C@@H](CCCCN)C(=O)N[C@@H](CCCNC(=N)N)C(=O)N[C@@H](Cc1ccccc1)C(=O)N[C@@H](CC(C)C)C(=O)N[C@@H](CCCNC(=N)N)C(=O)O [FR] (H-FKRIVQRIKRFLR-OH),,2.44 ± 0.83 µM,,8.00 ± 0.00 µM,16.00 ± 0.00 µM,3.78 ± 0.63 µM,8.00 ± 0.00 µM,7.11 ± 1.66 µM,4.00 ± 0.00 µM,16.00 ± 0.00 µM,8.00 ± 0.00 µM,8.00 ± 0.00 µM,"MIC, Control [13]: 8 µM; MIC under physiological salt concentration, CaCl2 [14]: > 32 µM; MIC under physiological salt concentration, FeCl3 [14]: 16 µM; MIC under physiological salt concentration, GM [14]: 19.50 µM; MIC under physiological salt concentration, KCl [14]: 8 µM; MIC under physiological salt concentration, MgCl2 [14]: 32 µM; MIC under physiological salt concentration, NH4Cl [14]: 8 µM; MIC under physiological salt concentration, NaCl [14]: > 32 µM; MIC under physiological salt concentration, ZnCl2 [14]: 8 µM"
